Source: US12508270B2, “Treatment of behavioral impairment in developmental and epileptic encephalopathy” (Harmony Biosciences Management, Inc., priority 2019, dated 2025)

Tested on: child and adolescent epilepsy patients with developmental and epileptic encephalopathies (DEE)
Experiment: Qualitative caregiver feedback at Week 26
Assay type: in vivo, human
Details: transdermal CBD
Excerpt: Qualitative assessment of improvement, worsening, or no change for the patient and family, such as but not limited to, daily activities, school attendance and alertness. In the examples, clinicians were asked to capture qualitative caregiver feedback at Week 26 with the following questions asked: (1) “Has anything improved for [patient name] and your family since [patient name] has been using the gel?”; (2) “Has anything got worse since for [patient name] and your family since [patient name] has been using the gel?”; and (3) “Let me just ask about a few specific things: Daily activities e.g. school attendance? If so how? Alertness? If so how?”.
Parents/caregivers were instructed to capture seizure frequency and type, and skin irritation scores, within daily diaries. Parents/caregivers also completed: • (1) The University of Washington Caregiver Stress Scale at Day 1, Week 14, and Week 26. • (2) Epilepsy and Learning Disabilities Quality of Life scale (ELDQOL—modified) at Day 1, Week 14 and Week 26. • (3) Sleep Disturbance Scale for Children (SDSC) at Day 1, Week 14 and Week 26. • (4) Vineland Adaptive Behavior Scale-3 (VABS-3) at Day 1 and Week 26. • (5) Parents/caregivers also completed a daily Likert-type “good day/bad day” questionnaire. • (6) Qualitative Caregiver Feedback at Week 26. Objectives […]

C=C(C)C1CCC(C)=CC1c1c(O)cc(CCCCC)cc1O (stereo not shown) [CBD, 2-[3-methyl-6-(1-methylethenyl)-2-cyclohexen-1-yl]-5-pentyl-1,3-benzenediol]
qualitative assessments by caregivers: improved many behavioral problems
